experiment: GSK PKIS2: Screen against O. lienalis microfilariae, single point, at 3.1uM to assess reduction in motility. Compounds were also tested for cytotoxicity against Rhesus Monkey LLCMK2 cells.; assay type: functional, Onchocerca lienalis, LLC-MK2; conditions: CELL_LINE LLCMK2; CELL_SUPPLIER ECACC; CONC 3.1 uM; ORGANISM_SUPPLIER Extracted from peri-umbilical skin obtained from naturally infected cattle in the UK; temperature 37 degree C

Row | Compound | MOTILITY REDUCTION/CYTOTOXICITY [%]
1 | CSc1nccc(-c2c(-c3ccc(F)cc3)ncn2CCCN2CCOCC2)n1 | 33.4
2 | CCn1c(-c2nonc2N)nc2c(C#CC(C)(C)O)nc(OCCN)cc21 | 0
3 | C[C@@H](Oc1cc(-n2cnc3cc(-c4ccnc(NCCS(C)(=O)=O)c4)ccc32)sc1C(N)=O)c1ccccc1Cl | 53.4
4 | C[C@@H](Oc1cc(-n2cnc3cc(-c4ccncc4)ccc32)sc1C(N)=O)c1ccccc1Cl | 0
5 | COc1nccc(-c2c(-c3ccc(F)cc3)ncn2CCCN2CCOCC2)n1 | 0
6 | Oc1ccc2ncnc(Nc3ccc(OCc4ccccc4)cc3)c2c1 | 100
7 | COc1ccccc1C1=C(Nc2ccc(O)c(Cl)c2)C(=O)NC1=O | 0
8 | O=C1NC(=O)C(c2ccc(Cl)cc2)=C1Nc1ccccc1 | 33.4
9 | CC(=O)N1CCN(c2ccc(Nc3nccc(-c4sc(C(C)C)nc4-c4cccc(NS(=O)(=O)c5cccc(Cl)c5)c4)n3)cn2)CC1 | 0
10 | CC(C)c1nc(-c2cccc(NS(=O)(=O)c3c(F)cccc3F)c2)c(-c2ccnc(Nc3ccc(N4CCOCC4)nc3)n2)s1 | 0
11 | CC(C)c1nc(-c2ccc(F)c(NS(=O)(=O)c3c(F)cccc3F)c2)c(-c2ccnc(Nc3ccc(N4CCOCC4)nc3)n2)s1 | 0
12 | Cc1ccc(NC(=O)Nc2cc(C(C)(C)C)nn2-c2ccccc2)cc1 | 0
13 | Cc1cccc(Nc2nc(N[C@H]3CCNC3)ncc2C(N)=O)c1 | 26.7
14 | COc1cccc2c(-c3ccncc3)c(-c3ccc(F)cc3)nn12 | 66.7
15 | Cc1cccc2c(-c3ccncn3)c(-c3ccc(F)cc3)nn12 | 13.4
16 | CN1CCN(CCCNc2nccc(-c3c(-c4ccc(F)cc4)nn4cc(C(F)(F)F)ccc34)n2)CC1 | 0
17 | O=c1cc(N2CCOCC2)nc2n(Cc3cccc4ccccc34)ccn12 | 0
18 | O=c1cc(N2CCOCC2)nc2n(Cc3cccc(F)c3)ccn12 | 0
19 | O=c1cc(N2CCOCC2)nc2n(Cc3cccc(Cl)c3)ccn12 | 0
20 | Cc1cn2c(=O)cc(N3CCOCC3)nc2n1Cc1cccc(Cl)c1Cl | 0
21 | Cc1c(Cn2c3ccccc3n3c(=O)cc(N4CCOCC4)nc23)cccc1C(F)(F)F | 0
22 | Cc1ccc(NC(=O)c2cccc(N3CCCCC3)c2)cc1-c1ccc(C(=O)NCC2CC2)cc1 | 20

Row | Compound | MOTILITY REDUCTION/CYTOTOXICITY [%]
23 | Cc1nn2c(=O)cc(N3CCOCC3)nc2n1Cc1cccc(Cl)c1Cl | 0
24 | Cc1c(Cn2c(C)nn3c(=O)cc(N4CCOC(C)C4)nc23)cccc1C(F)(F)F (stereo not drawn) | 0
25 | c1ccc(-c2n[nH]cc2-c2ccnc(-c3ccc(CN4CCOCC4)cc3)c2)nc1 | 40
26 | Cn1cc(-c2ccc3c(c2)CCN3C(=O)Cc2cccc(C(F)(F)F)c2)c2c(N)ncnc21 | 0
27 | Nc1ncc(-c2cn[nH]c2)c2scc(-c3ccc4c(c3)CCN4C(=O)Cc3ccccc3)c12 | 0
28 | Cc1ccccc1CC(=O)N1CCc2cc(-c3cn(C)c4ncnc(N)c34)ccc21 | 33.4
29 | O=C(Nc1ccc(Oc2ccc3[nH]c(NC(=O)c4ccco4)nc3c2)cc1)Nc1cc(C(F)(F)F)ccc1F | 0
30 | Nc1n[nH]c2nnc(-c3ccccc3)c(-c3ccccc3)c12 | 0
31 | O=C(Nc1n[nH]c2nc(-c3ccccc3)c(Cl)cc12)C1CC1 | 0
32 | Cc1nnc(-c2ccc(C)c(-c3ccc(C(=O)O)cc3)c2)o1 | 33.4
33 | O=C(Nc1[nH]nc2cc(-c3ccccc3F)ccc12)C1CC1 | 0
34 | CC(C)(C)n1cnc2c(N)ncnc21 | 0
35 | O=C1NC(=O)C(c2ccc(Cl)cc2)=C1Nc1cccc(C(=O)O)c1 | 0
36 | CN(C1=C(c2ccccc2)C(=O)NC1=O)c1ccccc1 | 0
37 | CS(=O)(=O)CCNCc1ccc(-c2ccc3ncnc(Nc4ccc(OCc5ccccc5)c(Cl)c4)c3c2)o1 | 20
38 | O=C(c1ccc(-c2cc(-c3c[nH]nc3-c3ccccn3)ccn2)cc1)N1CCCC1 | 0
39 | Cc1nn2c(=O)cc(N3CCO[C@H](C)C3)nc2n1Cc1cccc(Cl)c1Cl | 33.4
40 | O=C(Nc1n[nH]c2nc(-c3ccc(O)cc3)ccc12)C1CC1 | 33.4
41 | CCCC(=O)Nc1n[nH]c2ncccc12 | 20
42 | O=C(Nc1n[nH]c2nc(-c3cccc(O)c3)ccc12)C1CC1 | 0
43 | O=C(c1ccc(-c2cc(-c3c[nH]nc3-c3ccccn3)ccn2)cc1)N1CCOCC1 | 0
44 | NCC(C(=O)Nc1cc(Br)c(-c2ccnc3[nH]ccc23)s1)c1ccccc1 (stereo not drawn) | 0

Row | Compound | MOTILITY REDUCTION/CYTOTOXICITY [%]
45 | CCCCc1nn2ncccc2c1-c1ccnc(Nc2ccc(N3CCN(C)CC3)cc2)n1 | 13.4
46 | NC(=O)c1sc(-n2cnc3ccccc32)cc1OCc1ccccc1F | 20
47 | NCCCC(NC(=O)c1cc(Br)c(-c2ccnc3[nH]ccc23)s1)c1ccccc1 (stereo not drawn) | 0
48 | O=c1[nH]ccc2nc(N[C@@H]3CCCNC3)nc(Nc3ccc(S(=O)(=O)N4CCOCC4)cc3)c12 | 46.7
49 | O=C(NCCNc1ccnc(NCc2ccc(F)cc2)n1)c1cc2ccccc2s1 | 0
50 | N#CCc1ccc(Nc2nccc(Nc3ccc(Oc4ccccc4)cc3)n2)cc1 | 20
51 | Cc1cc(-c2ccc3c(c2)CC[C@@H](N[C@@H](C)c2ccccc2)C3)cnc1N | 33.4
52 | Cn1cncc1-c1ccc2ncnc(Nc3ccc(OCc4ccccc4)cc3)c2c1 | 0
53 | Fc1cc(Cl)ccc1Nc1ccnc2cc(-c3ccc(CN4CCOCC4)o3)ccc12 | 0
54 | COc1ccc(Nc2nccc(N3CCC(NC(=O)C(C)c4ccc(Cl)cc4)C3)n2)cc1 (stereo not drawn) | 33.4
55 | COc1cc(Nc2ccnc3cc(-c4ccncc4)ccc23)cc(OC)c1OC | 33.4
56 | CN(C)S(=O)(=O)c1cc(-c2ccc3nccc(-c4cccc(S(N)(=O)=O)c4)c3c2)cnc1N | 60
57 | Cc1c(O)cccc1Nc1ccnc2ccc(C(F)(F)F)cc12 | 40
58 | COc1ccc(Nc2nccc(N3CCC(NC(=O)Nc4cccc(C(C)=O)c4)C3)n2)cc1 (stereo not drawn) | 0
59 | Cc1ccc(NC(=O)c2cccc(C#N)c2)cc1-c1ccc(C(=O)Nc2ccncc2)cc1 | 73.4
60 | NC(=O)c1cccc(Nc2nccc(Nc3ccc(Oc4c(Cl)cccc4Cl)c(Cl)c3)n2)c1 | 0
61 | Oc1cc(Nc2ccnc3cc(I)ccc23)ccc1F | 33.4
62 | COc1ccc2nc(-c3cccc(C)n3)nc(Nc3ccncc3)c2c1 | 0
63 | COc1ccc(Nc2ncc(C#N)c(Nc3ccccc3C(N)=O)n2)cc1N1CCN(C)CC1 | 13.4
64 | COc1ccc(Nc2nccc(N3CCC(NS(=O)(=O)c4ccc(NC(C)=O)cc4)C3)n2)cc1 (stereo not drawn) | 33.4
65 | COc1ccc(Nc2nccc(N3CCC(NC(=O)Nc4cccc(OC)c4)C3)n2)cc1 (stereo not drawn) | 0
66 | COC(=O)c1cccc(NC(=O)NC2CCN(c3ccnc(NCc4ccc(F)cc4)n3)CC2)c1 | 20

Row | Compound | MOTILITY REDUCTION/CYTOTOXICITY [%]
67 | c1ccc(Oc2ccc(Nc3ccnc4ccc(-c5ccccn5)cc34)cc2)cc1 | 0
68 | CC(C)c1ccc(O)cc1Nc1ccnc2ccc(C(F)(F)F)cc12 | 33.4
69 | Cc1ccc(-c2nc(Nc3ccncc3)c3ccccc3n2)s1 | 0
70 | CN(C)CCOc1ccc(-c2cc(-c3ccc(Cl)c(O)c3)c(-c3ccncc3)[nH]2)cc1 | 0
71 | COc1ccc(Nc2nccc(N3CCC(NC(=O)Nc4ccc5c(c4)OCO5)C3)n2)cc1 (stereo not drawn) | 20
72 | NC[C@H](CC1CCCCC1)NC(=O)c1ccc(-c2ccnc3[nH]ccc23)s1 | 66.7
73 | Cc1cc(-c2ccnc(Nc3cccc(C#N)c3)n2)cc(C)c1O | 0
74 | COc1ccc(Nc2nccc(N3CCC(NC(=O)c4cccc(C#N)c4)C3)n2)cc1 (stereo not drawn) | 0
75 | Cc1cc(Nc2nc(-c3cccc(C)n3)nc3ccccc23)ccn1 | 0
76 | Cc1cccc(-c2nc(Nc3ccc4nn[nH]c4c3)c3ccccc3n2)n1 | 20
77 | O=C(Nc1cccc(-c2nn3ccccc3c2-c2ccnc(Nc3cccc(F)c3)n2)c1)c1c(F)ccc(F)c1Cl | 0
78 | COc1cc(Nc2nccc(N3CCC(NS(=O)(=O)c4ccc(NC(C)=O)cc4)CC3)n2)cc(OC)c1OC | 33.4
79 | O=C(Nc1cccc(-c2nn3ncccc3c2-c2ccnc(Nc3cccnc3)n2)c1)c1c(F)cccc1F | 0
80 | O=C(Nc1cccc(-c2nn3ccccc3c2-c2ccnc(Nc3cccc(C(F)(F)F)c3)n2)c1)c1c(F)cccc1F | 26.7
81 | Cc1ccc(C(=O)Nc2ccc(Nc3ccnc4cc(-c5nccs5)ccc34)cc2O)cc1 | 0
82 | Cc1ccc(Nc2ccnc(Nc3ccc(C)c(F)c3)n2)cc1O | 33.4
83 | COc1cccc(CNC(=O)NC2CCN(c3ccnc(Nc4ccc(F)cc4)n3)C2)c1 (stereo not drawn) | 33.4
84 | Cc1cc(N2CCC(NS(=O)(=O)c3ccc(F)cc3)CC2)nc(Nc2cccc(C#N)c2)n1 | 0
85 | COc1ccc(Nc2nccc(NCCNC(=O)Nc3cc(C)ccc3C)n2)cc1 | 33.4
86 | CN(C)Cc1ccc(-c2ccc3c(Nc4ccc(Oc5ccccn5)cc4)ccnc3c2)o1 | 0
87 | COc1cc(Nc2nccc(N3CCC(NC(=O)Nc4cc(C)ccc4C)C3)n2)cc(OC)c1OC (stereo not drawn) | 0
88 | Cc1occc1-c1nc(N)c(OC[C@@H](N)Cc2c[nH]c3ccccc23)cc1-c1cc2c(C)n[nH]c2cn1 | 0
